According to patent US20050059658A1, “Pyridazinone” (priority 2001, published 2005):

Key:
[1] = system: Human cytomegalovirus (HCMV), DavisSmith strain; experiment: HCMV xenograft Gelfoam model; format: in vivo, immunodeficient mice; conditions: perorally three times a day for 8 days, SCID mice, HCMV-infected NHDF cells in Gelfoam sponge
Source text: Female immunodeficient mice (16-18 g), Fox Chase SCID or Fox Chase SCID-NOD or SCID-beige, 3-4 weeks old, are obtained from commercial breeders (Bomholtgaard, Jackson). The animals are kept under sterile conditions (including litter and feed) in isolation units.
Human cytomegalovirus (HCMV), DavisSmith strain, is cultivated in vitro on embryonal human dermal fibroblasts (NHDF cells). Following infection of the NHDF cells with a multiplicity of infection (M.O.I.) of 0.01, the virus-infected cells are harvested after 5-7 days and, in the presence of minimal essential medium (MEM), 10% fetal calf serum (FCS) with 10% DMSO, stored at −40° C. Following serial dilution of the virus-infected cells in steps of ten, the titer is determined on 24-well plates of confluent NHDF cells after vital stain with Neutral Red.
Collagen sponges (Gelfoam®; from Peasel & Lorey, order No. 40734; K. T. Chong et al., Abstracts of 39th Interscience Conference on Antimicrobial Agents and Chemotherapy, 1999, p. 439) of a size of 1×1×1 cm are initially wetted with phosphate-buffered saline (PBS), the enclosed air bubbles are removed by degassing and the sponges are then stored in MEM+10% FCS. […] What is determined is the number of infectious virus particles after substance treatment compared to the placebo-treated control group.

[2] = system: human cytomegalovirus (HCMV); experiment: Anti-HCMV (anti-human cytomegalovirus) cytopathogenicity test; format: cell-based; conditions: for EC50: Human betaherpesvirus 5, 144 h, HCMV-infected NHDF cells, M.O.I. 0.001-0.002, 6 days, 50% inhibition of CPE; for SI HCMV: selectivity index = CC50 (NHDF)/EC50 (HCMV)
Protocol: (§1) The test compounds are used as 50 millimolar (mM) solutions in dimethyl sulfoxide (DMSO). The reference compounds used are ganciclovir, foscarnet and cidofovir. In each case 2 μl of the 50, 5, 0.5 and 0.05 mM DMSO stock solutions are added to in each case 98 μl of cell culture medium in row […] in duplicate, and 1:2 dilutions with in each case 50 μl of medium are then made up to row 11 of the 96-well plate. The wells in rows 1 and 12 each contain 50 μl of medium. In each case 150 μl of a suspension of 1×10^4 cells (NHDF=normal human dermal fibroblasts) (row 1 =cell control) and, for rows 2-12, a mixture of HCMV-infected and non-infected NHDF cells (M.O.I.=0.001-0.002), i.e. 1-2 infected cells per 1000 non-infected cells, are then pipetted into the wells. Row 12 (without substance) serves as virus control. The final test concentrations are 250-0.0005 μM. The plates are incubated at 37° C./5% CO2 for 6 days, i.e. until all cells in the virus controls are infected (100% cytopathogenic effect [CPE]). The wells are then fixed by adding a mixture of formalin and Giemsa's dye and stained (30 minutes), washed with doubly distilled water and dried in a drying cabinet at 50° C. The plates are then examined visually using an overhead microscope (Plaque multiplier from Technomara). Using the test plates, the following data can be determined: • CC50 (NHDF)=substance concentration in μM where, compared to the untreated cell control, no cytostatic effects on the cells are evident; • EC50 (HCMV)=substance concentration in μM where the CPE (cytopathic effect) is inhibited by 50% compared to the untreated virus control; • SI (selectivity index)=CC50 (NHDF)/EC50 (HCMV). In vivo Action: HCMV Xenograft Gelfoam® Model: Animals: […]

[3] = Cytotoxicity on NHDF cells in the anti-HCMV cytopathogenicity test; format: cell-based; conditions: human, NHDF cells (normal human dermal fibroblasts), 6 days incubation, visual evaluation
Protocol: as §1

Structure (SMILES) | melting point [°C] | Murine xenograft model ED50 t.i.d. [1] [mg]kg] | EC50 [2] [µM] | SI HCMV [2] | CC50 at 6 days [3] [µM]
CC1(C)CC(=O)NN=C1c1cccc(NC(=O)Nc2ccc(F)cc2F)c1 [Example 1, N-(2,4-Difluorophenyl)-N′-[3-(4,4-dimethyl-6-oxo-1,4,5,6-tetrahydro-3-pyridazinyl)-phenyl]urea] | 213 | 18 | 0.96 | 130 | 125
Cc1cc(Cl)ccc1NC(=O)Nc1cccc(C2=NNC(=O)CC2(C)C)c1 [Example 4, N-(4-Chloro-2-methylphenyl)-N′-[3-(4,4-dimethyl-6-oxo-1,4,5,6-tetrahydro-3-pyridazinyl)phenyl]urea] | 232 | 8 | 0.15 | >153 | > 23
CC1(C)CC(=O)NN=C1c1cccc(NC(=O)Nc2cccc(Br)c2)c1 [Example 3, N-(3-Bromophenyl)-N′-[3-(4,4-dimethyl-6-oxo-1,4,5,6-tetrahydro-3-pyridazinyl)-phenyl]urea] | 207 | – | 0.13 | 185 | 24
CC1(C)CC(c2ccccc2NC(=O)Nc2ccc(F)cc2F)=NNC1=O [Example 5, N-(2,4-Difluorophenyl)-N′-[2-(5,5-dimethyl-6-oxo-1,4,5,6-tetrahydro-3-pyridazinyl)-phenyl]urea] | – | – | 6.1 | 21 | 125
CC1(C)CC(c2cccc(NC(=O)Nc3ccc(F)c(F)c3)c2)=NNC1=O [Example 6, N-(3,4-Difluorophenyl)-N′-[3-(5,5-dimethyl-6-oxo-1,4,5,6-tetrahydro-3-pyridazinyl)-phenyl]urea] | 200 | – | – | – | –
CC1(C)CC(=O)NN=C1c1cccc(NC(=O)Nc2ccc(F)c(Cl)c2)c1 [Example 2, N-(3-Chloro-4-fluorophenyl)-N′-[3-(4,4-dimethyl-6-oxo-1,4,5,6-tetrahydro-3-pyridazinyl)phenyl]urea] | – | – | 0.07 | 329 | 23
